Calls of active or inactive are those of the source. No cut-off for these calls is given here.
Experiments:
[1] = molecular target: Replicase polyprotein 1ab (Severe acute respiratory syndrome coronavirus 2, UniProt P0DTD1); test: Inhibition of recombinant SARS-CoV-2 Main protease using ALNDFSNSGSDVLYQPPQTSITSAVLQ/SGFRKMAFPS-NH2 as substrate preincubated for 45 to 75 mins followed by substrate addition measured after 6 mins by SPE-MS inhibition assay
[2] = molecular target: Replicase polyprotein 1ab (Severe acute respiratory syndrome coronavirus 2) (UniProt P0DTD1); test: Inhibition of recombinant SARS-CoV-2 Main protease at Cys145 residue by covalent modification at 33 uM incubated for 45 mins by MS analysis
[3] = molecular target: Replicase polyprotein 1ab (Severe acute respiratory syndrome coronavirus 2) (UniProt P0DTD1); test: Inhibition of recombinant SARS-CoV-2 Main protease at Cys145 residue by non-covalent binding incubated for 45 mins by MS analysis
[4] = molecular target: Replicase polyprotein 1ab (Severe acute respiratory syndrome coronavirus 2) (UniProt P0DTD1); test: Inhibition of recombinant SARS-CoV-2 Main protease at Cys145 residue by covalent modification at 10 uM incubated for 45 mins by SPE-MS analysis

Question: With `CC1(C)[C@H](C(=O)OCOc2ccccc2)N2C(=O)[C@@H](NC(=O)COc3ccccc3)[C@H]2S1(=O)=O` as the compound, how does the IC50 [1] read?
Answer: 6.6 µM

Question: For `C#CCOC(=O)[C@@H]1N2C(=O)[C@@H](NC(=O)COc3ccccc3)[C@H]2S(=O)(=O)C1(C)C`, which inhibition [2] is on record?
Answer: Active

Question: Which inhibition [3] does the source give for `CC1(C)[C@H](C(=O)OCc2ccccc2)N2C(=O)[C@@H](NC(=O)COc3ccccc3)C[C@H]2S1(=O)=O` here?
Answer: Active

Question: How did the inhibition [4] turn out when `CC1(C)[C@H](C(=O)OCc2ccccc2)N2C(=O)[C@@H](NC(=O)COc3ccccc3)[C@H]2S1(=O)=O` was run?
Answer: Active

Source: ChEMBL document CHEMBL5154912, “Penicillin Derivatives Inhibit the SARS-CoV-2 Main Protease by Reaction with Its Nucleophilic Cysteine” (J Med Chem, 2022)
